In PubChem BioAssay (NCI):
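The compound was tested at five concentrations on cells cultured in 96-well plates, with a 48-hour exposure period. The concentration for 50% growth inhibition is given as GI50. Definition used: TGI = concentration required for complete inhibition of growth.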

Columns and labels:
Test in all cases: NCI anticancer screen, dose series, 48 h
[1] = system: 786-0 renal
[2] = system: A498 renal
[3] = system: A549 NSCLC
[4] = system: ACHN renal
[5] = system: BT-549 breast
[6] = system: CAKI-1 renal
[7] = system: CCRF-CEM leukemia
[8] = system: COLO 205 colon
[9] = system: DU-145 prostate
[10] = system: EKVX NSCLC
[11] = system: HCC-2998 colon
[12] = system: HCT-15 colon
[13] = system: HOP-62 NSCLC
[14] = system: HS 578T breast
[15] = system: HT29 colon
[16] = system: IGROV1 ovarian
[17] = system: K-562 leukemia
[18] = system: KM12 colon
[19] = system: M14 melanoma
[20] = system: MALME-3M melanoma
[21] = system: MCF7 breast
[22] = system: MDA-MB-231 breast
[23] = system: MDA-MB-435
[24] = system: MOLT-4 leukemia
[25] = system: NCI-H226 lung
[26] = system: NCI-H460 lung
[27] = system: NCI-H522 lung
[28] = system: NCI/ADR-RES ovarian
[29] = system: OVCAR-3 ovarian
[30] = system: OVCAR-4 ovarian
[31] = system: OVCAR-5 ovarian
[32] = system: OVCAR-8 ovarian
[33] = system: PC-3 prostate
[34] = system: RPMI-8226 leukemia
[35] = system: RXF 393 renal
[36] = system: SF-268 CNS
[37] = system: SF-295 CNS
[38] = system: SF-539 CNS
[39] = system: SK-MEL-2 melanoma
[40] = system: SK-MEL-28 melanoma
[41] = system: SK-MEL-5 melanoma
[42] = system: SK-OV-3 ovarian
[43] = system: SN12C renal
[44] = system: SNB-19 CNS
[45] = system: SNB-75 CNS
[46] = system: SR leukemia
[47] = system: SW-620 colon
[48] = system: T-47D breast
[49] = system: TK-10 renal
[50] = system: U251 CNS
[51] = system: UACC-257 melanoma
[52] = system: UACC-62 melanoma
[53] = system: UO-31 renal
[54] = system: HCT-116 colon
[55] = system: HL-60(TB) leukemia
[56] = system: HOP-92 NSCLC

CC(C)Sc1nc(Nc2ccc(S(N)(=O)=O)cc2)c(C#N)c(-c2ccc(F)cc2)n1
GI50 [1]: 3310 nM | TGI [1]: 11.1 µM | GI50 [2]: 2820 nM | TGI [3]: 10.4 µM | GI50 [4]: 3070 nM | TGI [4]: 9.12 µM | GI50 [5]: 9.29 µM | TGI [5]: 35.4 µM | GI50 [6]: 1780 nM | TGI [6]: 3.61 µM | GI50 [7]: 7.35 µM | GI50 [8]: 7.98 µM | TGI [8]: 30.2 µM | GI50 [9]: 5.68 µM | TGI [9]: > 100 µM | GI50 [10]: 3310 nM | TGI [10]: 14.1 µM | GI50 [11]: 10.7 µM | TGI [11]: 27.6 µM | TGI [12]: > 100000 nM | GI50 [13]: 3120 nM | TGI [13]: 10.7 µM | GI50 [14]: 2760 nM | TGI [14]: 9.31 µM | GI50 [15]: 2090 nM | TGI [15]: 4.77 µM | TGI [16]: 20.7 µM | GI50 [17]: 4260 nM | GI50 [18]: 6.92 µM | TGI [18]: > 100 µM | GI50 [19]: 5.59 µM | TGI [19]: 23.7 µM | GI50 [20]: 3200 nM | TGI [20]: 10.3 µM | TGI [21]: 32.1 µM | GI50 [22]: 2860 nM | TGI [22]: 8.1 µM | GI50 [23]: 4.35 µM | TGI [23]: 31.9 µM | GI50 [24]: 5.39 µM | GI50 [25]: 2140 nM | TGI [25]: 5.54 µM | TGI [26]: 5.57 µM | GI50 [27]: 8 µM | GI50 [28]: 3240 nM | GI50 [29]: 3020 nM | TGI [29]: 8.51 µM | GI50 [30]: 2100 nM | TGI [30]: 4.92 µM | GI50 [31]: 14.6 µM | TGI [31]: 62.4 µM | GI50 [32]: 3980 nM | TGI [32]: 15.7 µM | GI50 [33]: 4.84 µM | TGI [33]: 19 µM | GI50 [34]: 9.22 µM | TGI [34]: 64.3 µM | TGI [35]: 4.47 µM | GI50 [36]: 5.49 µM | TGI [36]: 30.6 µM | GI50 [37]: 1950 nM | TGI [37]: 3.73 µM | TGI [38]: 4.81 µM | GI50 [39]: 19 µM | TGI [39]: 55.7 µM | GI50 [40]: 14.6 µM | TGI [40]: 37.7 µM | GI50 [41]: 23.3 µM | TGI [41]: 77.4 µM | GI50 [42]: 3040 nM | TGI [42]: 8.94 µM | GI50 [43]: 2380 nM | TGI [43]: 5.99 µM | GI50 [44]: 2850 nM | TGI [44]: 8.01 µM | GI50 [45]: 2490 nM | TGI [45]: 9.2 µM | GI50 [46]: 3730 nM | GI50 [47]: 3840 nM | TGI [47]: 22.8 µM | GI50 [48]: 3.46 µM | TGI [48]: 20.3 µM | GI50 [49]: 3080 nM | GI50 [50]: 1810 nM | TGI [50]: 3.54 µM | GI50 [51]: 14.4 µM | TGI [51]: 47.8 µM | GI50 [52]: 10.3 µM | TGI [52]: 26.3 µM | GI50 [53]: 2390 nM | TGI [53]: 8.92 µM

Cc1ccc2c(n1)C(=O)C(Cl)=C(Nc1cccc(C)c1C)C2=O
GI50 [1]: 1900 nM | TGI [1]: 4.08 µM | GI50 [2]: 2230 nM | TGI [2]: 5.19 µM | GI50 [3]: 2150 nM | TGI [3]: 5 µM | GI50 [4]: 1620 nM | TGI [4]: 3.19 µM | GI50 [5]: 1.58 µM | TGI [5]: 3.04 µM | GI50 [6]: 1570 nM | TGI [6]: 3.12 µM | GI50 [7]: 1.25 µM | TGI [7]: 5.22 µM | GI50 [8]: 2.03 µM | TGI [8]: 4.72 µM | GI50 [9]: 1.65 µM | TGI [9]: 3.2 µM | GI50 [10]: 1580 nM | TGI [10]: 3.73 µM | GI50 [11]: 1.92 µM | TGI [11]: 3.77 µM | GI50 [54]: 871 nM | TGI [54]: 2600 nM | GI50 [12]: 1130 nM | TGI [12]: 2730 nM | GI50 [55]: 1150 nM | TGI [55]: 3.49 µM | GI50 [13]: 1550 nM | TGI [13]: 2.96 µM | GI50 [56]: 1980 nM | TGI [56]: 3.95 µM | GI50 [14]: 2210 nM | TGI [14]: 6.23 µM | GI50 [15]: 2680 nM | TGI [15]: 7.16 µM | GI50 [16]: 1680 nM | TGI [16]: 3.72 µM | GI50 [17]: 770 nM | TGI [17]: 3.58 µM | GI50 [18]: 1.95 µM | TGI [18]: 4.54 µM | GI50 [19]: 1.61 µM | TGI [19]: 3.19 µM | GI50 [20]: 1830 nM | TGI [20]: 3.3 µM | GI50 [21]: 1160 nM | TGI [21]: 2.95 µM | GI50 [23]: 1.89 µM | TGI [23]: 3.72 µM | GI50 [24]: 0.827 µM | TGI [24]: 3.35 µM | GI50 [25]: 1940 nM | TGI [25]: 4.39 µM | GI50 [26]: 2250 nM | TGI [26]: 5.62 µM | GI50 [27]: 1.96 µM | TGI [27]: 4.58 µM | GI50 [28]: 1920 nM | TGI [28]: 6.6 µM | GI50 [29]: 372 nM | TGI [29]: 1.4 µM | GI50 [30]: 1140 nM | TGI [30]: 2.42 µM | GI50 [31]: 2.01 µM | TGI [31]: 3.93 µM | GI50 [32]: 2020 nM | TGI [32]: 7.41 µM | GI50 [33]: 1.43 µM | TGI [33]: 3.48 µM | GI50 [34]: 1.35 µM | TGI [34]: 4.12 µM | GI50 [35]: 1520 nM | TGI [35]: 2.88 µM | GI50 [36]: 1.61 µM | TGI [36]: 3.48 µM | GI50 [37]: 1840 nM | TGI [37]: 3.39 µM | GI50 [38]: 1670 nM | TGI [38]: 3.16 µM | GI50 [39]: 1.91 µM | TGI [39]: 3.84 µM | GI50 [40]: 1.93 µM | TGI [40]: 3.7 µM | GI50 [41]: 1.62 µM | TGI [41]: 3.02 µM | GI50 [42]: 1590 nM | TGI [42]: 3.64 µM | GI50 [43]: 1670 nM | TGI [43]: 4.35 µM | GI50 [44]: 1920 nM | TGI [44]: 5.08 µM | GI50 [45]: 1460 nM | TGI [45]: 2.92 µM | GI50 [46]: 600 nM | TGI [46]: 3.21 µM | GI50 [47]: 2060 nM | TGI [47]: 4.82 µM | GI50 [49]: 2470 nM | TGI [49]: 4.2 µM | GI50 [50]: 1550 nM | TGI [50]: 3.08 µM | GI50 [51]: 1.44 µM | TGI [51]: 2.8 µM | GI50 [53]: 1460 nM | TGI [53]: 2.95 µM
